Data published in patent publication US10738074B2, “Cyclic di-nucleotide compounds as STING agonists” (Merck Sharp & Dohme Corp., priority 2015, dated 2020).

How the values were obtained:
THP1 cells = assay: IFN-β secretion in THP1 cell culture (5 h); assay type: cell-based, human; conditions: IFN-β secretion, THP1 cells, 5 h, 30 μM
Protocol: The ability of compounds to stimulate the secretion of interferon-beta from THP1 cells was measured using a human IFN-β AlphaLISA kit (Perkin Elmer, Cat. No. AL265F). The basic protocol is as follows:
A Labcyte Echo 550 acoustic dispenser was used to transfer 120 nL of compound dissolved in DMSO into the wells of an empty, sterile 384-well microplate, (Corning, Cat. No. 3712). THP1 cells (American Type Culture Collection, Cat. No. TIB202) previously frozen in Recovery Medium (Life Technologies, Cat. No. 12648-010) were thawed and immediately diluted 10-fold into 37° C. assay medium (RPMI 1640+L-Glutamine & phenol red, Life Technologies, Cat. No. 11875-085; 0.5% heat inactivated fetal bovine serum, Sigma Aldrich, Cat. No. F4135; 1 mM Sodium Pyruvate, Life Technologies, Cat. No. 11360-070; lx non-essential amino acids; Life Technologies, Cat. No. 11140-050). The cell viability and count was ascertained using a Beckman Coulter V-Cell XR cell counter. The cells suspension was centrifuged at 200×g for 5 min at RT. Cells were resuspended to a density of 0.8×10^6/mL in 37° C. assay medium. Subsequent liquid transfers were performed using either a Matrix electronic multichannel pipette or an Agilent Bravo Automated Liquid Handling Platform.
The assay was started by dispensing 40 μL of the previously prepared cell suspension into the wells of the plate containing compounds. After 5 h incubation at 37° C., 5% CO2 in a humidified atmosphere, the plate of cells and compounds was centrifuged at 200×g for 5 min at RT. From each well, 5 μL of supernatant was transferred into corresponding wells of a white 384-well plate (Perkin Elmer, Cat. No. 6005620). To these supernatant-containing wells was added 10 μL of 5× Anti-Analyte Acceptor beads (50 μg/mL of AlphaLISA HiBlock Buffer) and incubated for 30 min at RT while shaking on an orbital plate shaker. To each well was added 10 μL of 5× Biotinylated Antibody Anti-analyte (5 nM in AlphaLISA HiBlock Buffer) and incubated on an orbital plate shaker for 60 min at RT or overnight at 4° C. To each well was added 25 μL of 2× SA-Donor beads (80 μg/mL in AlphaLISA HiBlock Buffer) and incubated for 30-45 min at RT in the dark while shaking on an orbital plate shaker. The plate was then read on a Perkin Elmer Envision (λex=680 nm, λem=[…]). The percent effect of the AlphaLISA signal at each compound concentration was calculated based on 30 uM cGAMP positive controls and 0.3% DMSO negative controls. The plot of percent effect versus the log of compound concentration was fit with a 4-parameter concentration response equation to calculate EC50 values. The test compounds were tested at concentrations 30000, 10000, 3333, 1111, 370.4, 123.4, 41.2, 13.7, 4.6, and 1.5 nM with 0.3% residual DMSO.
Compounds of the disclosure were evaluated for IFN-β secretion in THP1 cell culture as described above. The following table tabulates the biological data for these compounds as percent activation relative to 2′3′-cGAMP at the 30 μM concentration.

full-length WT STING = full-length WT STING (Homo sapiens (Human), UniProt Q86WV6, H232R); assay: 3H-cGAMP filtration binding assay (WT STING); conditions: competition with tritiated cGAMP, WT STING membrane
full-length WT STING, sequence (Q86WV6 other isoform, or with tags, fused parts or gaps H232R (already in the parent)): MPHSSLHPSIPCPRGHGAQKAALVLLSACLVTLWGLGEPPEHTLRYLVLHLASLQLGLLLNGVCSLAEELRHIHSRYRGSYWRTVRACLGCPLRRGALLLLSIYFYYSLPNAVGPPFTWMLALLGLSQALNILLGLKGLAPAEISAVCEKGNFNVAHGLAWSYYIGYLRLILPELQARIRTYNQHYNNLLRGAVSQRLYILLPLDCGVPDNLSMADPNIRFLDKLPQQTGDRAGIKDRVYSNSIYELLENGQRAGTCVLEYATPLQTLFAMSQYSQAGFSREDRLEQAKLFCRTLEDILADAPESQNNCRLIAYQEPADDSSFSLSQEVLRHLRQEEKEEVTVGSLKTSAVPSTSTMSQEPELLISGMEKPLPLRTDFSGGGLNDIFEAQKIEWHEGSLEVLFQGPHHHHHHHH
From the text: (§1) The ability of compounds to bind STING is quantified by their ability to compete with tritiated cGAMP ligand for human STING receptor membrane using a radioactive filter-binding assay. The binding assay employs STING receptor obtained from Trichoplusia ni cell membranes (Tni; Expression Systems, cat #94-002F, www.expressionsystems.com) overexpressing full-length WT STING prepared in-house and tritiated cGAMP ligand also purified in-house.
The basic WT STING filtration assay protocol is as follows:
The filter plates were then dried at 55° C. for 30 min using a pressurized VWR oven before 30 uL of Ultima GoldF scintillate was added to each well. Tritium levels for each reaction well were then measured using a PerkinElmer TopCount plate reader.
(§2) After normalization to controls, the percent activity for each compound concentration was calculated by measuring the amount of remaining radioactivity. The plot of percent activity versus the log of compound concentration was fit with a 4-parameter dose response equation to calculate EC50 values.

full-length HAQ STING = full-length HAQ STING (Homo sapiens (Human), UniProt Q86WV6, G230A/H232R/R293Q/R71H); assay: 3H-cGAMP filtration binding assay (HAQ STING); conditions: competition with tritiated cGAMP, HAQ STING membrane
full-length HAQ STING, sequence (Q86WV6 other isoform, or with tags, fused parts or gaps, stated change not applied): as the sequence (Q86WV6 other isoform, or with tags, fused parts or gaps H232R (already in the parent)) above, with R71H, G230A, R293Q counted along it
From the text: as §1, with “the” for “their”, “Hi-Five” for “Trichoplusia ni”, “membranes” for “membranes (Tni; Expression Systems, cat #94-002F, www.expressionsystems.com)”, “HAQ” for “WT”
as §1, with “www.exrpressionsystems.com)” for “www.expressionsystems.com)”, “HAQ” for “WT”
The basic HAQ STING filtration assay protocol is as follows:
Compound and membrane then preincubated for 60 min at RT to allow compound binding to equilibrate. Following equilibration, 8 nM of [^3H] c-GAMP ligand was prepared by diluting into assay buffer, and 50 uL of this working stock was then manually added to each well of the assay plate. […] The filter plates were then dried at 55° C. for 30 min using a pressurized VWR oven before 30 uL of Ultima GoldF scintillate was added to each well. Tritium levels for each reaction well were then measured using a PerkinElmer TopCount plate reader.
as §2

EC50 (full-length WT STING): < 1 nM
EC50 (full-length HAQ STING): < 1 nM
SMILES: Nc1nc2c(ncn2[C@H]2O[C@@H]3COP(=O)(O)O[C@@H]4[C@H](N)[C@@H](COP(=O)(O)O[C@@H]2[C@@H]3O)O[C@H]4n2cnc3c(N)ncnc32)c(=O)[nH]1 [Example 34]
% Effect at 30 μM relative to 2′3′-cGAMP (THP1 cells): 132%
